Test results reported in patent US20260108546A1 (ELI LILLY AND COMPANY, priority 2024, published 2026).

Target: T1, hGIP-R (Homo sapiens, UniProt P48546)
T1 construct: expressed in transfected cells; host or cells: HEK-293 clonal cell lines
T1 sequence (P48546 22-466): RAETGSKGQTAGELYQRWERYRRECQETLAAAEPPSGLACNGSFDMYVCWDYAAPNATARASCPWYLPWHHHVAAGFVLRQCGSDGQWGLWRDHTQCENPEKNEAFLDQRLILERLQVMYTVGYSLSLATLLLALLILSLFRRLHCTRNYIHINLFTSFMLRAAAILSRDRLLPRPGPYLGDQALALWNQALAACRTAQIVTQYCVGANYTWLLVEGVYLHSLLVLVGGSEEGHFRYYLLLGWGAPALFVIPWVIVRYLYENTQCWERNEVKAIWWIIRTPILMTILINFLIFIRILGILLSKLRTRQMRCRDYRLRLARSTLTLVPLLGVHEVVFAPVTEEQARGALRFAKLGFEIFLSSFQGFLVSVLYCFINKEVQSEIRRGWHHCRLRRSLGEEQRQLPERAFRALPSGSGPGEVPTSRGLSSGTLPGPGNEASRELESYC
Experiment: Functional hGIP-R Assay (cAMP formation, HTRF)
Format: cell-based
Conditions: for Emax: cAMP efficacy, percent of maximal response to GIP(1-42)OH, 37° C., 0.1% bovine casein, arithmetic mean ± SEM; for EC50: cAMP potency, HEK-293 cells expressing hGIP-R, incubated at 37° C. in the presence of 0.1% bovine casein, geometric mean, read-out: Human GIP-R EC50, nM (SEM, n)
Procedure: Functional activity was determined using CAMP formation in HEK-293 clonal cell lines expressing hGIP-R. hGIP-R receptor expressing cells were treated with compound (20 point concentration-response curve in DMSO, 2-fold Labcyte Echo direct dilution, 384 well plate Corning Cat #3570) in DMEM (Gibco Cat #31053) supplemented with 1× GlutaMAX™ (Gibco Cat #35050), 0.1% bovine casein (Sigma C4765-10ML), 250 μM IBMX (3-Isobutyl-1-methylxanthine, Acros Cat #228420010) and 20 mM HEPES (Gibco Cat #15630) in a 20 μL assay volume (final DMSO concentration was 1%). After a 30 min incubation at 37° C., the resulting increase in intracellular cAMP was quantitatively determined using the Revvity CAMP Dynamic 2 HTRF Assay Kit (62AM4PEJ). Briefly, cAMP levels within the cell were detected by adding the cAMP-d2 conjugate in cell lysis buffer (10 μL) followed by the antibody anti-cAMP-Eu^3+-Cryptate, also in cell lysis buffer (10 μL). The resulting competitive assay was incubated for at least 60 min at RT, then detected using a BMG Labtech PHERAstar FSX instrument with excitation at 320 nm and emission at 665 nm and 620 nm. PHERAstar units (emission at 665 nm/620 nm*10,000) are inversely proportional to the amount of cAMP present and were converted to nM cAMP per well using a CAMP standard curve. The amount of cAMP generated (nM) in each well was converted to a percent of the maximal response observed with human GIP (1-42) OH. A relative EC50 value and percent top (Emax) were derived by non-linear regression analysis using the percent maximal response vs. the concentration of compound added, fitted to a four-parameter logistic equation.

Structure (SMILES)	Emax [%]	EC50 [nM]
Cn1cc2cc(-c3ccc([C@H]4C[C@@]45CCN([C@H](Cc4cnn(C(F)F)c4)C(=O)NC4(Cn6nc(C(F)(F)F)cc6-c6cc(F)c(=O)n(C)c6)CC4)C5=O)c(F)c3)cnc2n1 (single isomer, unassigned; isomer 1) [Example 119]	79.5 ± 5.3	144
[2H]C([2H])([2H])N(C(=O)C1CC1(C)c1ccc(-c2cnc3nn(C)cc3c2)cc1F)[C@H](Cc1cnn(C(F)F)c1)C(=O)NC(C)(C)Cn1nc(C(F)(F)F)cc1-c1cc(F)c(=O)n(C)c1 (single isomer, unassigned; isomer 1) [Example 140]	84.8 ± 5.99	51.7
Cc1cn2cc(-c3ccc(C4CC45CCN([C@H](Cc4cnn(C(F)F)c4)C(=O)NC(C)(C)Cn4nc(C(F)(F)F)cc4-c4ccc(=O)n(C)c4)C5=O)c(C(F)(F)F)c3)cnc2n1 (single isomer, unassigned; isomer 1) [Example 153]	77 ± 2.05	0.478
Cn1cc(C[C@@H](NC(=O)C2CC2c2ccc(-c3cnc4nn(C)cc4c3)s2)C(=O)NC(C)(C)Cn2nc(C(F)(F)F)cc2Br)cn1 (single isomer, unassigned; isomer 2) [Example 7]	99.7 ± 0.756	246
Cn1cc(C[C@@H](NC(=O)C2CC2c2ccc(-c3cnc4nn(C)cc4c3)s2)C(=O)NC(C)(C)Cn2nc(C(F)(F)F)cc2-c2ccc(=O)n(C)c2)cn1 (single isomer, unassigned; isomer 2) [Example 60]	89.8 ± 3.63	189
Cn1cc2cc(-c3ccc(C4CC4C(=O)N[C@H](Cc4cnc5ncccn45)C(=O)NC(C)(C)Cn4cc(C(F)(F)F)cn4)c(F)c3)cnc2n1 (single isomer, unassigned; isomer 2) [Example 71]	88.4 ± 10.3	74.8
Cn1cc(C[C@@H](NC(=O)C2CC2(C)c2ccc(-c3cnc4nn(C)cc4c3)cc2)C(=O)NC(C)(C)Cn2cc(C(F)(F)F)cn2)cn1 (single isomer, unassigned; isomer 4) [Example 11]	117 ± 5.22	55.2
Cn1cc2cc(-c3ccc([C@H]4C[C@@H]4C(=O)N[C@H](Cc4cnn(C(F)F)c4)C(=O)NC(C)(C)Cn4nc(C(F)(F)F)cc4Br)cc3)cnc2n1 [Example 12, (1S,2S)-N-((R)-1-((1-(5-bromo-3-(trifluoromethyl)-1H-pyrazol-1-yl)-2-methylpropan-2-yl)amino)-3-(1-(difluoromethyl)-1H-pyrazol-4-yl)-1-oxopropan-2-yl)-2-(4-(2-methyl-2H-pyrazolo[3,4-b]pyridin-5-yl)phenyl) cyclopropane-1-carboxamide]	106 ± 5.38	104
Cn1cc(C[C@@H](NC(=O)[C@H]2C[C@@H]2c2ccc(-c3cnc4nn(C)cc4c3)cc2)C(=O)NC(C)(C)Cn2nc(C(F)(F)F)cc2-c2ncsn2)cn1 [Example 17, (1S,2S)-N-((R)-1-((1-(5-(1,2,4-Thiadiazol-3-yl)-3-(trifluoromethyl)-1H-pyrazol-1-yl)-2-methylpropan-2-yl)amino)-3-(1-methyl-1H-pyrazol-4-yl)-1-oxopropan-2-yl)-2-(4-(2-methyl-2H-pyrazolo [3,4-b]pyridin-5-yl)phenyl) cyclopropane-1-carboxamide]	129 ± 11.4	83.5
Cn1cc(C[C@@H](NC(=O)[C@H]2C[C@@H]2c2ccc(-c3cnc4nn(C)cc4c3)cc2)C(=O)NC(C)(C)Cn2nc(C(F)(F)F)cc2-c2ccnc(C(C)(C)O)c2)cn1 [Example 18, (1S,2S)-N-((R)-1-((1-(5-(2-(2-Hydroxypropan-2-yl)pyridin-4-yl)-3-(trifluoromethyl)-1H-pyrazol-1-yl)-2-methylpropan-2-yl)amino)-3-(1-methyl-1H-pyrazol-4-yl)-1-oxopropan-2-yl)-2-(4-(2-methyl-2H-pyrazolo [3,4-b]pyridin-5-yl)phenyl) cyclopropane-1-carboxamide]	116 ± 13	12
Cn1cc(C[C@@H](NC(=O)[C@H]2C[C@@H]2c2ccc(-c3cnc4nn(C)cc4c3)cc2)C(=O)NC(C)(C)Cn2nc(C(F)(F)F)cc2-c2ccc(=O)n(C)c2)cn1 [Example 19, (1S,2S)-N-((R)-1-((2-Methyl-1-(5-(1-methyl-6-oxo-1,6-dihydropyridin-3-yl)-3-(trifluoromethyl)-1H-pyrazol-1-yl)propan-2-yl)amino)-3-(1-methyl-1H-pyrazol-4-yl)-1-oxopropan-2-yl)-2-(4-(2-methyl-2H-pyrazolo[3,4-b]pyridin-5-yl)phenyl) cyclopropane-1-carboxamide]	123 ± 1.72	66.9

The remaining molecules from weak to strong by EC50, led by results:

Emax [%]	EC50 [nM]	Structure (SMILES)
102 ± 4.83	300	CC(C)(Cn1cc(C(F)(F)F)cn1)NC(=O)[C@@H](Cc1cnc2ncccn12)NC(=O)C1CC1c1ccc(-c2cnc3nn(C(F)F)cc3c2)cn1 (single isomer, unassigned; isomer 2) [Example 72]
103 ± 10.2	87.7	Cn1cc(C[C@@H](NC(=O)[C@H]2C[C@@H]2c2ccc(-c3cnc4nn(C)cc4c3)cc2)C(=O)NC(C)(C)Cn2nc(C(F)(F)F)cc2-c2n[nH]cc2F)cn1 [Example 14, (1S,2S)-N-((R)-1-((1-(4-Fluoro-5′-(trifluoromethyl)-1H,2′H-[3,3′-bipyrazol]-2′-yl)-2-methylpropan-2-yl)amino)-3-(1-methyl-1H-pyrazol-4-yl)-1-oxopropan-2-yl)-2-(4-(2-methyl-2H-pyrazolo[3,4-b]pyridin-5-yl)phenyl) cyclopropane-1-carboxamide]
85.5 ± 2.37	82.3	Cc1cc(C2CC2C(=O)N[C@H](Cc2cnn(C)c2)C(=O)NC(C)(C)Cc2ccc(F)cc2)ccc1NC(=O)Nc1ccc(F)cc1 (single isomer, unassigned; isomer 2) [Example 50]
99.4	79.8	Cn1cc(C[C@@H](NC(=O)C2CC2c2ccc(-c3cnc4nccn4c3)cc2C(F)(F)F)C(=O)NC(C)(C)Cc2ccc(F)cc2)cn1 (single isomer, unassigned; isomer 2) [Example 29]
104 ± 4.17	36	Cn1cc(C[C@@H](NC(=O)[C@H]2C[C@@H]2c2ccc(-c3cnc4nn(C)cc4c3)cc2)C(=O)NC(C)(C)Cn2nc(C(F)(F)F)cc2-c2n[nH]c(=O)s2)cn1 [Example 16, (1S,2S)-N-((R)-1-((2-Methyl-1-(5-(5-oxo-4,5-dihydro-1,3,4-thiadiazol-2-yl)-3-(trifluoromethyl)-1H-pyrazol-1-yl)propan-2-yl)amino)-3-(1-methyl-1H-pyrazol-4-yl)-1-oxopropan-2-yl)-2-(4-(2-methyl-2H-pyrazolo[3,4-b]pyridin-5-yl)phenyl) cyclopropane-1-carboxamide]
117 ± 6.6	24.6	Cc1ncc(-c2cc(C(F)(F)F)nn2CC(C)(C)NC(=O)[C@@H](Cc2cnn(C)c2)NC(=O)[C@H]2C[C@@H]2c2ccc(-c3cnc4nn(C)cc4c3)cc2)[nH]1 [Example 15, (1S,2S)-N-((R)-1-((2-Methyl-1-(5-(2-methyl-1H-imidazol-5-yl)-3-(trifluoromethyl)-1H-pyrazol-1-yl)propan-2-yl)amino)-3-(1-methyl-1H-pyrazol-4-yl)-1-oxopropan-2-yl)-2-(4-(2-methyl-2H-pyrazolo[3,4-b]pyridin-5-yl)phenyl) cyclopropane-1-carboxamide]
115 ± 1.59	0.845	Cc1cn2cc(-c3ccc([C@H]4C[C@@]45CCN([C@H](Cc4cnn(C(F)F)c4)C(=O)NC(C)(C)Cc4nc(C(F)(F)F)cn4C4CCN(C)C4=O)C5=O)c(Cl)c3)cnc2n1 (single isomer, unassigned; isomer 1) [Example 177]
73.3 ± 2.59	0.701	Cn1cc2cc(-c3ccc(C4CC45CCN([C@H](Cc4cnn(C(F)F)c4)C(=O)NC(C)(C)Cn4nc(C(F)(F)F)cc4-c4cc(F)c(=O)n(C)c4)C5=O)c(C(F)F)c3)cnc2n1 (single isomer, unassigned; isomer 2) [Example 109]
